Measurements: patent US11109593B2, “Isoxazolin-5-one derivative and herbicide containing same as active ingredient” (HOKKO CHEMICAL INDUSTRY CO., LTD., priority 2017, dated 2021)

What was measured:
Type in all cases: in vivo
Chenopodium album [1] = assay: Test Example 4: herbicidal effect test by treatment of leave and stem in dry field farming (seven days after seeding); settings: 120 g/10a active ingredient; emulsion sprayed seven days after seeding; evaluated 14 days after treatment
Procedure, shortened: (§1)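 Duplicate pots were scored 14 days post-spray by dry weight, herbicidal rate = {1 − treated/untreated average dry weight} × 100. The water-diluted emulsion, equivalent to 120 g active ingredient per 10 ares in 100 L, was applied seven days after sowing 20 seeds each into the upper 1 cm of alluvial soil.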

Amaranthus viridis [2] = assay: as above; settings: 120 g/10a active ingredient; emulsion sprayed seven days after seeding; evaluated 14 days after treatment
Procedure, shortened: as §1

southern crabgrass [3] = assay: as above; settings: 120 g/10a active ingredient; emulsion sprayed seven days after seeding; evaluated 14 days after treatment
Procedure, shortened: as §1

Echinochloa crus-galli [4] = assay: as above; settings: 120 g/10a active ingredient; emulsion sprayed seven days after seeding; evaluated 14 days after treatment
Procedure, shortened: as §1

Chenopodium album [5] = assay: Test Example 3: herbicidal effect test by treatment of dry field farming soil (one day after seeding); settings: 120 g/10a active ingredient, evaluated 14 days after treatment
Procedure, shortened: (§2)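 Compound emulsions are sprayed on the soil surface one day after sowing (120 g a.i. per 10 ares) before weeds emerge. Effect is expressed as percent dry-weight reduction versus untreated controls 14 days post-treatment.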

Amaranthus viridis [6] = assay: as above; settings: 120 g/10a active ingredient, evaluated 14 days after treatment
Procedure, shortened: as §2

southern crabgrass [7] = assay: as above; settings: 120 g/10a active ingredient, evaluated 14 days after treatment
Procedure, shortened: as §2

Echinochloa crus-galli [8] = assay: as above; settings: 120 g/10a active ingredient, evaluated 14 days after treatment
Procedure, shortened: as §2

Echinochloa crus-galli [9] = assay: Test Example 1: herbicidal effect test by treatment of rice paddy soil (immediately after seeding); settings: 120 g/10a active ingredient, dry weight vs untreated area, 14 days after treatment
Procedure, shortened: (§3)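 Flooded paddy pot test in a glass greenhouse: emulsion diluted in water, dropped at 120 g a.i. per 10 ares just after sowing, water depth kept about 3 cm. Dry-weight reduction relative to untreated plants is scored at 14 days.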

[10] = test system: broad leaf weeds (Lindernia pyxidaria and Monochoria vaginalis); assay: as above; settings: 120 g/10a active ingredient, dry weight vs untreated area, 14 days after treatment
Procedure, shortened: as §3

Scirpus juncoides [11] = assay: as above; settings: 120 g/10a active ingredient, dry weight vs untreated area, 14 days after treatment
Procedure, shortened: as §3

Echinochloa crus-galli [12] = assay: Test Example 2: herbicidal effect test by treatment during growing period in paddy rice cultivation (seven days after seeding); settings: 120 g/10a active ingredient, assessed 14 days after treatment, dry weight vs untreated area
Procedure, shortened: (§4)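 Greenhouse flooded-pot test, seeds sown in puddled paddy soil; emulsion applied into water 7 d after seeding, 120 g a.i./10 a. Dry-weight-based herbicidal rate at 14 d, n=2.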

[13] = test system: broad leaf weeds (Lindernia pyxidaria and Monochoria vaginalis); assay: as above; settings: 120 g/10a active ingredient, assessed 14 days after treatment, dry weight vs untreated area
Procedure, shortened: as §4

Scirpus juncoides [14] = assay: as above; settings: 120 g/10a active ingredient, assessed 14 days after treatment, dry weight vs untreated area
Procedure, shortened: as §4

## COC(=O)N(c1ccccc1Cc1c(C)n(C(C)(C)C)oc1=O)S(=O)(=O)C(F)(F)F [Compound 1-576]
Chenopodium album [1]
  herbicidal effect (herbicidal rate), Chenopodium album: 40%
Amaranthus viridis [2]
  herbicidal effect (herbicidal rate), Amaranthus viridis: 40%
Southern crabgrass [3]
  herbicidal effect (herbicidal rate), southern crabgrass: 90%
Echinochloa crus-galli [4]
  herbicidal effect (herbicidal rate), Echinochloa crus-galli: 90%
Chenopodium album [5]
  herbicidal rate, Chenopodium album: 90%
Amaranthus viridis [6]
  herbicidal rate, Amaranthus viridis: 90%
Southern crabgrass [7]
  herbicidal rate, southern crabgrass: 90%
Echinochloa crus-galli [8]
  herbicidal rate, Echinochloa crus-galli: 90%
Echinochloa crus-galli [9]
  Herbicidal rate (%) Echinochloa crus-galli: 90%
[10]
  Herbicidal rate (%) Lindernia pyxidaria: 90%
  Herbicidal rate (%) Monochoria vaginalis: 90%
Scirpus juncoides [11]
  Herbicidal rate (%) Scirpus juncoides: 90%
Echinochloa crus-galli [12]
  Herbicidal rate (%) Echinochloa crus-galli: 90%
[13]
  Herbicidal rate (%) Lindernia pyxidaria: 90%
  Herbicidal rate (%) Monochoria vaginalis: 90%
Scirpus juncoides [14]
  Herbicidal rate (%) Scirpus juncoides: 90%

## Cc1c(Cc2ccccc2N(S(=O)(=O)C(F)(F)F)S(=O)(=O)C(F)(F)F)c(=O)on1C(C)Cc1ccccc1 (stereo not shown) [Compound 1-1045]
Chenopodium album [1]
  herbicidal effect (herbicidal rate), Chenopodium album: 0%
Amaranthus viridis [2]
  herbicidal effect (herbicidal rate), Amaranthus viridis: 60%
Southern crabgrass [3]
  herbicidal effect (herbicidal rate), southern crabgrass: 40%
Echinochloa crus-galli [4]
  herbicidal effect (herbicidal rate), Echinochloa crus-galli: 90%
Chenopodium album [5]
  herbicidal rate, Chenopodium album: 40%
Amaranthus viridis [6]
  herbicidal rate, Amaranthus viridis: 40%
Southern crabgrass [7]
  herbicidal rate, southern crabgrass: 50%
Echinochloa crus-galli [8]
  herbicidal rate, Echinochloa crus-galli: 90%
Echinochloa crus-galli [9]
  Herbicidal rate (%) Echinochloa crus-galli: 100%
[10]
  Herbicidal rate (%) Lindernia pyxidaria: 90%
  Herbicidal rate (%) Monochoria vaginalis: 80%
Scirpus juncoides [11]
  Herbicidal rate (%) Scirpus juncoides: 90%
Echinochloa crus-galli [12]
  Herbicidal rate (%) Echinochloa crus-galli: 90%
[13]
  Herbicidal rate (%) Lindernia pyxidaria: 60%
  Herbicidal rate (%) Monochoria vaginalis: 90%
Scirpus juncoides [14]
  Herbicidal rate (%) Scirpus juncoides: 90%

## Cc1c(Cc2ccccc2N(C(=O)OCc2ccccc2)S(=O)(=O)C(F)(F)F)c(=O)on1C(C)c1ccccc1 (stereo not shown) [Compound 1-796]
Chenopodium album [1]
  herbicidal effect (herbicidal rate), Chenopodium album: 40%
Amaranthus viridis [2]
  herbicidal effect (herbicidal rate), Amaranthus viridis: 40%
Southern crabgrass [3]
  herbicidal effect (herbicidal rate), southern crabgrass: 90%
Echinochloa crus-galli [4]
  herbicidal effect (herbicidal rate), Echinochloa crus-galli: 90%
Chenopodium album [5]
  herbicidal rate, Chenopodium album: 90%
Amaranthus viridis [6]
  herbicidal rate, Amaranthus viridis: 90%
Southern crabgrass [7]
  herbicidal rate, southern crabgrass: 90%
Echinochloa crus-galli [8]
  herbicidal rate, Echinochloa crus-galli: 90%
Echinochloa crus-galli [9]
  Herbicidal rate (%) Echinochloa crus-galli: 90%
[10]
  Herbicidal rate (%) Lindernia pyxidaria: 90%
  Herbicidal rate (%) Monochoria vaginalis: 90%
Scirpus juncoides [11]
  Herbicidal rate (%) Scirpus juncoides: 90%
Echinochloa crus-galli [12]
  Herbicidal rate (%) Echinochloa crus-galli: 90%
[13]
  Herbicidal rate (%) Lindernia pyxidaria: 90%
  Herbicidal rate (%) Monochoria vaginalis: 90%
Scirpus juncoides [14]
  Herbicidal rate (%) Scirpus juncoides: 90%

## Cc1c(Cc2ccccc2NS(=O)(=O)C(F)(F)F)c(=O)on1CC(C)(C)C [Compound 1-106]
Chenopodium album [1]
  herbicidal effect (herbicidal rate), Chenopodium album: 40%
Amaranthus viridis [2]
  herbicidal effect (herbicidal rate), Amaranthus viridis: 40%
Southern crabgrass [3]
  herbicidal effect (herbicidal rate), southern crabgrass: 90%
Echinochloa crus-galli [4]
  herbicidal effect (herbicidal rate), Echinochloa crus-galli: 90%
Chenopodium album [5]
  herbicidal rate, Chenopodium album: 90%
Amaranthus viridis [6]
  herbicidal rate, Amaranthus viridis: 90%
Southern crabgrass [7]
  herbicidal rate, southern crabgrass: 90%
Echinochloa crus-galli [8]
  herbicidal rate, Echinochloa crus-galli: 90%
Echinochloa crus-galli [9]
  Herbicidal rate (%) Echinochloa crus-galli: 90%
[10]
  Herbicidal rate (%) Lindernia pyxidaria: 90%
  Herbicidal rate (%) Monochoria vaginalis: 90%
Scirpus juncoides [11]
  Herbicidal rate (%) Scirpus juncoides: 90%
Echinochloa crus-galli [12]
  Herbicidal rate (%) Echinochloa crus-galli: 90%
[13]
  Herbicidal rate (%) Lindernia pyxidaria: 90%
  Herbicidal rate (%) Monochoria vaginalis: 90%
Scirpus juncoides [14]
  Herbicidal rate (%) Scirpus juncoides: 90%

## CSCCn1oc(=O)c(Cc2ccccc2N(C(=O)OCC(C)C)S(=O)(=O)C(F)(F)F)c1C [Compound 1-676]
Chenopodium album [1]
  herbicidal effect (herbicidal rate), Chenopodium album: 40%
Amaranthus viridis [2]
  herbicidal effect (herbicidal rate), Amaranthus viridis: 40%
Southern crabgrass [3]
  herbicidal effect (herbicidal rate), southern crabgrass: 90%
Echinochloa crus-galli [4]
  herbicidal effect (herbicidal rate), Echinochloa crus-galli: 90%
Chenopodium album [5]
  herbicidal rate, Chenopodium album: 90%
Amaranthus viridis [6]
  herbicidal rate, Amaranthus viridis: 90%
Southern crabgrass [7]
  herbicidal rate, southern crabgrass: 90%
Echinochloa crus-galli [8]
  herbicidal rate, Echinochloa crus-galli: 90%
Echinochloa crus-galli [9]
  Herbicidal rate (%) Echinochloa crus-galli: 90%
[10]
  Herbicidal rate (%) Lindernia pyxidaria: 90%
  Herbicidal rate (%) Monochoria vaginalis: 90%
Scirpus juncoides [11]
  Herbicidal rate (%) Scirpus juncoides: 90%
Echinochloa crus-galli [12]
  Herbicidal rate (%) Echinochloa crus-galli: 90%
[13]
  Herbicidal rate (%) Lindernia pyxidaria: 90%
  Herbicidal rate (%) Monochoria vaginalis: 90%
Scirpus juncoides [14]
  Herbicidal rate (%) Scirpus juncoides: 90%

## Cc1c(Cc2ccccc2N(S(C)(=O)=O)S(=O)(=O)C(F)(F)F)c(=O)on1C(C)C [Compound 1-888]
Chenopodium album [1]
  herbicidal effect (herbicidal rate), Chenopodium album: 40%
Amaranthus viridis [2]
  herbicidal effect (herbicidal rate), Amaranthus viridis: 40%
Southern crabgrass [3]
  herbicidal effect (herbicidal rate), southern crabgrass: 40%
Echinochloa crus-galli [4]
  herbicidal effect (herbicidal rate), Echinochloa crus-galli: 80%
Chenopodium album [5]
  herbicidal rate, Chenopodium album: 60%
Amaranthus viridis [6]
  herbicidal rate, Amaranthus viridis: 40%
Southern crabgrass [7]
  herbicidal rate, southern crabgrass: 70%
Echinochloa crus-galli [8]
  herbicidal rate, Echinochloa crus-galli: 90%
Echinochloa crus-galli [9]
  Herbicidal rate (%) Echinochloa crus-galli: 100%
[10]
  Herbicidal rate (%) Lindernia pyxidaria: 100%
  Herbicidal rate (%) Monochoria vaginalis: 90%
Scirpus juncoides [11]
  Herbicidal rate (%) Scirpus juncoides: 90%
Echinochloa crus-galli [12]
  Herbicidal rate (%) Echinochloa crus-galli: 90%
[13]
  Herbicidal rate (%) Lindernia pyxidaria: 80%
  Herbicidal rate (%) Monochoria vaginalis: 100%
Scirpus juncoides [14]
  Herbicidal rate (%) Scirpus juncoides: 90%

## CCC(=O)N(c1ccccc1Cc1c(C)n(CC(C)(C)C)oc1=O)S(=O)(=O)C(F)(F)F [Compound 1-318]
Chenopodium album [1]
  herbicidal effect (herbicidal rate), Chenopodium album: 40%
Amaranthus viridis [2]
  herbicidal effect (herbicidal rate), Amaranthus viridis: 40%
Southern crabgrass [3]
  herbicidal effect (herbicidal rate), southern crabgrass: 90%
Echinochloa crus-galli [4]
  herbicidal effect (herbicidal rate), Echinochloa crus-galli: 90%
Chenopodium album [5]
  herbicidal rate, Chenopodium album: 90%
Amaranthus viridis [6]
  herbicidal rate, Amaranthus viridis: 90%
Southern crabgrass [7]
  herbicidal rate, southern crabgrass: 90%
Echinochloa crus-galli [8]
  herbicidal rate, Echinochloa crus-galli: 90%
Echinochloa crus-galli [9]
  Herbicidal rate (%) Echinochloa crus-galli: 90%
[10]
  Herbicidal rate (%) Lindernia pyxidaria: 90%
  Herbicidal rate (%) Monochoria vaginalis: 90%
Scirpus juncoides [11]
  Herbicidal rate (%) Scirpus juncoides: 90%
Echinochloa crus-galli [12]
  Herbicidal rate (%) Echinochloa crus-galli: 90%
[13]
  Herbicidal rate (%) Lindernia pyxidaria: 90%
  Herbicidal rate (%) Monochoria vaginalis: 90%
Scirpus juncoides [14]
  Herbicidal rate (%) Scirpus juncoides: 90%

## Cc1c(Cc2ccccc2N(S(=O)(=O)C(F)(F)F)S(=O)(=O)C(F)(F)F)c(=O)on1C1CCCCC1 [Compound 1-990]
Chenopodium album [1]
  herbicidal effect (herbicidal rate), Chenopodium album: 40%
Amaranthus viridis [2]
  herbicidal effect (herbicidal rate), Amaranthus viridis: 50%
Southern crabgrass [3]
  herbicidal effect (herbicidal rate), southern crabgrass: 0%
Echinochloa crus-galli [4]
  herbicidal effect (herbicidal rate), Echinochloa crus-galli: 60%
Chenopodium album [5]
  herbicidal rate, Chenopodium album: 50%
Amaranthus viridis [6]
  herbicidal rate, Amaranthus viridis: 0%
Southern crabgrass [7]
  herbicidal rate, southern crabgrass: 50%
Echinochloa crus-galli [8]
  herbicidal rate, Echinochloa crus-galli: 50%
Echinochloa crus-galli [9]
  Herbicidal rate (%) Echinochloa crus-galli: 90%
[10]
  Herbicidal rate (%) Lindernia pyxidaria: 90%
  Herbicidal rate (%) Monochoria vaginalis: 80%
Scirpus juncoides [11]
  Herbicidal rate (%) Scirpus juncoides: 80%
Echinochloa crus-galli [12]
  Herbicidal rate (%) Echinochloa crus-galli: 100%
[13]
  Herbicidal rate (%) Lindernia pyxidaria: 100%
  Herbicidal rate (%) Monochoria vaginalis: 80%
Scirpus juncoides [14]
  Herbicidal rate (%) Scirpus juncoides: 80%

## CCC(C)Cn1oc(=O)c(Cc2ccccc2NS(=O)(=O)C(F)(F)F)c1C (stereo not shown) [Compound 1-112]
Chenopodium album [1]
  herbicidal effect (herbicidal rate), Chenopodium album: 0%
Amaranthus viridis [2]
  herbicidal effect (herbicidal rate), Amaranthus viridis: 40%
Southern crabgrass [3]
  herbicidal effect (herbicidal rate), southern crabgrass: 50%
Echinochloa crus-galli [4]
  herbicidal effect (herbicidal rate), Echinochloa crus-galli: 90%
Chenopodium album [5]
  herbicidal rate, Chenopodium album: 80%
Amaranthus viridis [6]
  herbicidal rate, Amaranthus viridis: 60%
Southern crabgrass [7]
  herbicidal rate, southern crabgrass: 90%
Echinochloa crus-galli [8]
  herbicidal rate, Echinochloa crus-galli: 90%
Echinochloa crus-galli [9]
  Herbicidal rate (%) Echinochloa crus-galli: 100%
[10]
  Herbicidal rate (%) Lindernia pyxidaria: 90%
  Herbicidal rate (%) Monochoria vaginalis: 90%
Scirpus juncoides [11]
  Herbicidal rate (%) Scirpus juncoides: 90%
Echinochloa crus-galli [12]
  Herbicidal rate (%) Echinochloa crus-galli: 90%
[13]
  Herbicidal rate (%) Lindernia pyxidaria: 80%
  Herbicidal rate (%) Monochoria vaginalis: 80%
Scirpus juncoides [14]
  Herbicidal rate (%) Scirpus juncoides: 90%

## Cc1c(Cc2ccccc2N(C(=O)c2ccccc2)S(=O)(=O)C(F)(F)F)c(=O)on1C(C)(C)C [Compound 1-473]
Chenopodium album [1]
  herbicidal effect (herbicidal rate), Chenopodium album: 40%
Amaranthus viridis [2]
  herbicidal effect (herbicidal rate), Amaranthus viridis: 40%
Southern crabgrass [3]
  herbicidal effect (herbicidal rate), southern crabgrass: 90%
Echinochloa crus-galli [4]
  herbicidal effect (herbicidal rate), Echinochloa crus-galli: 90%
Chenopodium album [5]
  herbicidal rate, Chenopodium album: 90%
Amaranthus viridis [6]
  herbicidal rate, Amaranthus viridis: 90%
Southern crabgrass [7]
  herbicidal rate, southern crabgrass: 90%
Echinochloa crus-galli [8]
  herbicidal rate, Echinochloa crus-galli: 90%
Echinochloa crus-galli [9]
  Herbicidal rate (%) Echinochloa crus-galli: 90%
[10]
  Herbicidal rate (%) Lindernia pyxidaria: 90%
  Herbicidal rate (%) Monochoria vaginalis: 90%
Scirpus juncoides [11]
  Herbicidal rate (%) Scirpus juncoides: 90%
Echinochloa crus-galli [12]
  Herbicidal rate (%) Echinochloa crus-galli: 90%
[13]
  Herbicidal rate (%) Lindernia pyxidaria: 90%
  Herbicidal rate (%) Monochoria vaginalis: 90%
Scirpus juncoides [14]
  Herbicidal rate (%) Scirpus juncoides: 90%
